The source of these data is publication PMC9905601, “Archaeal DNA-import apparatus is homologous to bacterial conjugation machinery” (Nature Communications, 2023).

In this assay the target is T1, P. calidifontis protein Pcal_0765, TedC (Pyrobaculum calidifontis, UniProt A3MU74).
T1 sequence (A3MU74 23-153): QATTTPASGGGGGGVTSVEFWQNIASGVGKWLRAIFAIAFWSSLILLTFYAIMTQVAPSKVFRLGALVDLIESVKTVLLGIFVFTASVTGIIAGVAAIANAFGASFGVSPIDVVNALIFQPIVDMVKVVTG
The experiment in a line: cryo-EM structure of native pilus, […] Å. The assay is classed as binding.

For the compound `C[C@@H]1CCC[C@H](C)CCC[C@@H](C)CC[C@H](C)CCC[C@@H](C)CCC[C@H](C)CCC[C@H](C)CCOC[C@H](CO)OCC[C@H](C)CCC[C@H](C)CCC[C@H](C)CCC[C@@H](C)CC[C@H](C)CCC[C@@H](C)CCC[C@H](C)CCC[C@H](C)CCOC[C@H](CO)OCC[C@H](C)CCC1` [GDGT-0], the “cryo-EM structure of native pilus, 4.0 Å” value is “we have modeled the simplest form, GDGT-0, into the cryo-EM density”.
